Data set [1] in a line: Compound was tested for the drug concentration which reduces the viability of uninfected C8166 cells by 50%. The data set is classed as cell-based. To be noted: human, read-out: TC50 (the source's name).
Data set [2] can be described thus: SI (selectivity index) is the ratio of TC50 to EC50. The data set is classed as functional.
The test system of data set [3] is Human immunodeficiency virus 1. The data set can be described thus: Compound was tested for the drug concentration which reduces viral antigen production by 50%. The data set is classed as functional, organism-based.

As to `Cc1ccc(/C(=N/c2ccccc2)Nc2ccccc2)cc1`, the CC50 in data set [1] is over 500 µM. In addition, the SI in data set [2] is under 1. The compound also displayed an EC50 in data set [3] of over 500 µM.
With `Cc1cn([C@H]2C[C@H](N=[N+]=[N-])[C@@H](CO)O2)c(=O)[nH]c1=O` [ZIDOVUDINE], the CC50 in data set [1] is over 1000 µM. Besides, in data set [2], the SI is over 6. The compound also returned an EC50 in data set [3] of 0.016 µM.
Take `O=[N+]([O-])c1ccc(/C(=N/c2ccccc2)Nc2ccccc2)cc1`: in data set [1], the CC50 is 80 µM. Besides, the SI in data set [2] stood at 4. In data set [3], a half-maximal effect (EC50) was put at 20 µM.
For `Brc1ccc(/C(=N/c2ccccc2)Nc2ccccc2)cc1` the same measures were 200 µM, 2 and 100 µM.
On to `c1ccc(/N=C(\Nc2ccccc2)c2ccccc2)cc1`, for which, in data set [1], the CC50 is 400 µM. For the same compound, the SI in data set [2] was under 1. Moreover, the EC50 in data set [3] is over 400 µM.
In the case of `Clc1ccc(/C(=N/c2ccccc2)Nc2ccccc2)cc1`, the CC50 in data set [1] was 1000 µM. Besides, the SI in data set [2] was 125. Further, in data set [3], the EC50 is 8 µM.
As to `COc1ccc(/C(=N/c2ccccc2)Nc2ccccc2)cc1`, in data set [1], the CC50 came to 80 µM. For the same compound, the SI in data set [2] is under 1. The compound further registered an EC50 in data set [3] of over 80 µM.

For the origin of these results see ChEMBL document CHEMBL1129141, “Synthesis, characterization, and anti-HIV activity of some 2-p-X-phenyl-1,3-N,N-diphenyl-amidines” (Bioorg Med Chem Lett, 1996).
